Measurements taken from US12595289B2, “Therapeutic agent for breast cancer comprising BIG3-PHB2 interaction-inhibiting peptide derived from PHB2” (TOKUSHIMA UNIVERSITY, priority 2018, dated 2026).
Several values for one entry are separate records, joined by “and”; a condition that tells them apart may be missing. Equal entries are not always repeated. Positions of bridges follow the written chain, without caps; N, C: chain ends. Non-standard residues stand in square brackets, D forms with d. Residues, ends and D or L forms follow the SMILES beside them. No end group written: not given here. 2Nal = N[C@@H](Cc1ccc2ccccc2c1)C(=O)O; Nle = CCCC[C@H](N)C(=O)O; PEG = not defined here

Tests used:
[1] = tested on: Human breast cancer cell line MCF-7; experiment: Estrogen (E2)-dependent growth assay on MCF-7; format: cell-based; details: 24 hours; for suppression ratio of estrogen-dependent growth: MCF-7, 10 nM estrogen, peptide concentration not given (FIG. 11B, 12B); for suppression ratio of E2-dependent growth: MCF-7, 10 μM each peptide, 10 nM estrogen
Procedure: (§1) Growth assay on MCF-7 was carried out by seeding cells into 48-well plates (2×10^4 cells/200 μL). First, on the next day after seeding, the medium was changed to phenol red-free DMEM/F12 (Thermo Fisher Scientific) supplemented with 10% FBS, 1% Antibiotic/Antimycotic solution, 0.1 mM NEAA, 1 mM sodium pyruvate, and 10 μg/mL insulin. 24 hours later, the cells were treated with 10 nM 17β-estradiol (estrogen, Sigma) alone or with 10 nM estrogen and a PHB2 sequence-derived peptide. Growth assay on MCF-10A was carried out by seeding cells into 48-well plates (2×10^4 cells/200 μL). 24 hours after seeding, PHB2 sequence-derived peptide was added. Growth assays were carried out using the Cell Counting Kit-8 (CCK-8) (Dojindo, Kumamoto, Japan). The data are shown by mean±standard deviation of three independent experiments.
PHB2 peptides 11-21aa and 76-88aa were cross-linked by three types of cross-linking methods (FIG. 10A: hexafluorobenzene cross-linking, decafluorobiphenyl cross-linking, and disulfide cross-linking) to prepare cross-linked PHB2 peptides (stapled PHB2 peptides) (FIG. 10B), and the suppressive effects of these peptides on estrogen-dependent growth were examined. In the experiment, breast cancer cells MCF-7 were seeded, 10 μM each PHB2 peptide and 10 nM estrogen were added after 48 hours, and the cell number was evaluated after another 24 hours by MTT assay.

[2] = tested on: Human breast cancer cell line MCF-7; experiment: Estrogen (E2)-dependent growth assay on MCF-7; format: cell-based; details: 10 nM estrogen
[3] = tested on: Normal mammary gland epithelial cell line MCF-10A; experiment: Growth assay on normal mammary gland epithelial cells MCF-10A; format: cell-based
Procedure: as §1

[4] = tested on: PHB2 (Ser39) phosphorylation; experiment: Ser39 phosphorylation of PHB2 in MCF-7 by Western blotting; format: cell-based, Human; details: MCF-7, 10 μM each peptide, 10 nM estrogen, 24 hours (FIG. 2C)
Procedure: For immunoblot analyses, after performing SDS-PAGE, the membranes blotted with proteins were blocked with 4% BlockAce solution (Dainippon Pharmaceutical, Osaka, Japan) for 3 hours and then incubated to react for 12 hours with antibodies against BIG3 (1:1,000), PHB2 (1:1,000) (Abcam, Cambridge, UK) and phosphorylated PHB2 (Ser39, Scrum, Tokyo, Japan). After allowing interaction with HRP-labeled secondary antibodies (anti-rat IgG-HRP for BIG3, 1:5,000; and anti-rabbit IgG-HRP for PHB2 and phosphorylated PHB2, 1:1,000) (Santa Cruz Biotechnology, Dallas, TX, USA) for 1 hour, the blots were developed with the Enhanced Chemiluminescence (ECL) system (GE Healthcare, Buckinghamshire, UK) and scanned using the Image Reader LAS-3000 mini (Fujifilm, Tokyo, Japan).

[5] = MCF-7, 4 μM cyclic 11-21aa, 2 μM cyclic 76-88aa, up to 96 hours (FIG. 7B)
[6] = MCF-7, 10 μM peptide alone, after 96 hours
[7] = MCF-10A (FIG. 6B), 1 μM or 10 μM, up to 96 hours
[8] = MCF-10A, cyclic 11-21aa 4 μM, cyclic 76-88aa 2 μM (FIG. 7C)

Compound	suppression ratio of estrogen-dependent growth [1]	suppression ratio of E2-dependent growth [1]	also measured
SEQ ID NO: 126: cyclic PHB2 peptide 76-88aa, hexafluorobenzene cross-linked (CQYPIIYDIRARPRCF[Nal]RRRR; linker 1-15 via hexafluorobenzene; not fully specified (C-terminus))	about 80%		
CCCC[C@@H]1NC(=O)CNC(=O)[C@H](CCCNC(=N)N)NC(=O)[C@@H]2CCCN2C(=O)CNC(=O)[C@H](C)NC(=O)[C@@H]2CCCN2C(=O)[C@H](CC(C)C)NC(=O)[C@H](CCCNC(=N)N)NC(=O)[C@@H]2CSSC[C@H](NC(=O)[C@H]([C@@H](C)O)NC(=O)CNC1=O)C(=O)N[C@@H](Cc1ccccc1)C(=O)N[C@@H](Cc1ccc3ccccc3c1)C(=O)N[C@@H](CCCNC(=N)N)C(=O)N[C@@H](CCCNC(=N)N)C(=O)N[C@@H](CCCNC(=N)N)C(=O)N[C@@H](CCCNC(=N)N)C(=O)N2 [cyclic 11-21aa] (cyclo(CRLPAGPRG[Nle]GTCF[2Nal]RRRR); disulfide 1-13)		enhanced suppression ratios compared to non-cyclic peptides	suppression ratio of E2-dependent growth [2, 5]: 41%; suppression ratio of E2-dependent growth [2, 6]: 67%; suppression ratio of E2-dependent growth ([1]; listed as cyclic peptide 11-21aa): 53%; effect on growth of MCF-10A [3, 7]: no effect on the growth; effect on growth of MCF-10A [3, 8]: no effect on growth
SEQ ID NO: 127: cyclic PHB2 peptide 76-88aa, decafluorobiphenyl cross-linked (CQYPIIYDIRARPRCF[Nal]RRRR; linker 1-15 via decafluorobiphenyl; not fully specified (C-terminus))	about 80%		
SEQ ID NO: 119: cross-linked PHB2 peptide 76-88aa without polyarginine at the C terminus (CQYPIIYDIRARPRC-NH2; linker 1-15 via hexafluorobenzene)		about 70%	
SEQ ID NO: 121: cross-linked PHB2 peptide 76-88aa without polyarginine at the C terminus (CQYPIIYDIRARPRC-NH2; disulfide 1-15)		about 70%	
SEQ ID NO: 123: cyclic PHB2 peptide 11-21aa, hexafluorobenzene cross-linked (CRLPAGPRG[Nle]GTCF[Nal]RRRR; linker 1-13 via hexafluorobenzene; not fully specified (C-terminus))	about 70%		
SEQ ID NO: 124: cyclic PHB2 peptide 11-21aa, decafluorobiphenyl cross-linked (CRLPAGPRG[Nle]GTCF[Nal]RRRR; linker 1-13 via decafluorobiphenyl; not fully specified (C-terminus))	about 70%		
SEQ ID NO: 117: cross-linked PHB2 peptide 11-21aa without polyarginine at the C terminus (CRLPAGPRG[Nle]GTC-NH2; disulfide 1-13)		about 70%	
SEQ ID NO: 120: cross-linked PHB2 peptide 76-88aa without polyarginine at the C terminus (CQYPIIYDIRARPRC-NH2; linker 1-15 via decafluorobiphenyl)		about 70%	
No. 3: PHB2 sequence-derived peptide 38-50aa (ESVFTVEGGHRAI; not fully specified (C-terminus))		23% and 17%	
No. 50: PHB2 sequence-derived peptide 75-89aa (FQYPIIYDIRARPRK; not fully specified (C-terminus))		almost the same suppressive effect	
SEQ ID NO: 134: PHB2 peptide 11-22aa in which glycines at positions 15 and 18 were substituted with D-leucines (RLPA[dL]PR[dL]MGTARRRRRRRR-NH2)	about 65%		
SEQ ID NO: 133: PHB2 peptide 11-22aa in which glycines at positions 15 and 18 were substituted with D-alanines (RLPA[dA]PR[dA]MGTARRRRRRRR-NH2)	no suppressive effect		
CC[C@H](C)[C@@H]1NC(=O)[C@H](CC(=O)O)NC(=O)[C@H](Cc2ccc(O)cc2)NC(=O)[C@H]([C@@H](C)CC)NC(=O)[C@H]([C@@H](C)CC)NC(=O)[C@@H]2CCCN2C(=O)[C@H](Cc2ccc(O)cc2)NC(=O)[C@H](CCC(N)=O)NC(=O)[C@@H]2CSSC[C@H](NC(=O)[C@H](CCCNC(=N)N)NC(=O)[C@@H]3CCCN3C(=O)[C@H](CCCNC(=N)N)NC(=O)[C@H](C)NC(=O)[C@H](CCCNC(=N)N)NC1=O)C(=O)N[C@@H](Cc1ccccc1)C(=O)N[C@@H](Cc1ccc3ccccc3c1)C(=O)N[C@@H](CCCNC(=N)N)C(=O)N[C@@H](CCCNC(=N)N)C(=O)N[C@@H](CCCNC(=N)N)C(=O)N[C@@H](CCCNC(=N)N)C(=O)N2 [cyclic 76-88aa] (cyclo(CQYPIIYDIRARPRCF[2Nal]RRRR); disulfide 1-15)		enhanced suppression ratios compared to non-cyclic peptides	suppression ratio of E2-dependent growth [2, 5]: 59%; suppression ratio of E2-dependent growth [2, 6]: 72%; suppression ratio of E2-dependent growth ([1]; listed as cyclic peptide 76-88aa): 58%; effect on growth of MCF-10A [3, 7]: no effect on the growth; effect on growth of MCF-10A [3, 8]: no effect on growth
No. 6: PHB2 peptide 86-100aa (negative control) (RPRKISSPTGSKDLQ; not fully specified (C-terminus))		about 10%	band intensity of Ser39 phosphorylation of PHB2 compared to ERAP treatment [4]: 10%
SEQ ID NO: 115: cross-linked PHB2 peptide 11-21aa without polyarginine at the C terminus (CRLPAGPRG[Nle]GTC-NH2; linker 1-13 via hexafluorobenzene)		about 70%	
SEQ ID NO: 116: cross-linked PHB2 peptide 11-21aa without polyarginine at the C terminus (CRLPAGPRG[Nle]GTC-NH2; linker 1-13 via decafluorobiphenyl)		about 70%	
branched bound: 11-22aa and 76-90aa sequences synthesized with branching, linked via a PEG sequence (peptide 1 RLPAGPRGMGTA; peptide 2 QYPIIYDIRARPRKI; linker (positions not given here) via PEG; not fully specified (N-terminus); reading uncertain; also: branched construct, branch and link places not given here)		57%	inhibition ratio of MCF-10A growth ([3]; MCF-10A, 10 μM each peptide, 24 hours): no effect on growth
No. 2: PHB2 sequence-derived peptide 42-50aa (TVEGGHRAI; not fully specified (C-terminus))		22% and 20%	
